What all share (type): functional
The target in assay [1] is T1, Cdk-related protein kinase 6 (Plasmodium falciparum, UniProt O77239).
T1 sequence (O77239 whole entry): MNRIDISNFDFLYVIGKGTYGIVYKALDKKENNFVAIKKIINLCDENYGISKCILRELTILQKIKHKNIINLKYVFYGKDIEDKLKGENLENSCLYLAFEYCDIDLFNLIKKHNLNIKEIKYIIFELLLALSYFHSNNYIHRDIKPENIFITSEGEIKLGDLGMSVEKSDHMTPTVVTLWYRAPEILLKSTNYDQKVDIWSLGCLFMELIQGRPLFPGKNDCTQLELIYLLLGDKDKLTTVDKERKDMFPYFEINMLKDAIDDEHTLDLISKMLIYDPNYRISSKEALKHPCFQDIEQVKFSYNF
Put plainly: Final concentrations were 1.5 uM ATP, 5 mM MnCl2, and 15 ug/ml PK6 in a buffer of 100 mM Tris-HCl (pH 7.5). 50 ug/mL MBP was provided as the substrate; 10 uM staurosporine was used as a control inhibitor. Incubation time was 3 hours and 40 minutes.The catalytic activity of each kinase was considered proportional to ATP consumed, as determined from measurements of residual [ATP] with the luciferase-based reagent Kinase-Glo (Promega) following incubation. Luminescence (proportional to residual [ATP]) was measured on the plate readers FLx800 (BioTek Instruments, Winooski, VT, USA) and MicroBeta2. For orientation: In Kinase-Glo more light means more ATP remaining.

Assay [2] has as its target T2, Putative uncharacterized protein pk7 (Plasmodium falciparum, UniProt O96214).
T2 sequence (O96214 whole entry): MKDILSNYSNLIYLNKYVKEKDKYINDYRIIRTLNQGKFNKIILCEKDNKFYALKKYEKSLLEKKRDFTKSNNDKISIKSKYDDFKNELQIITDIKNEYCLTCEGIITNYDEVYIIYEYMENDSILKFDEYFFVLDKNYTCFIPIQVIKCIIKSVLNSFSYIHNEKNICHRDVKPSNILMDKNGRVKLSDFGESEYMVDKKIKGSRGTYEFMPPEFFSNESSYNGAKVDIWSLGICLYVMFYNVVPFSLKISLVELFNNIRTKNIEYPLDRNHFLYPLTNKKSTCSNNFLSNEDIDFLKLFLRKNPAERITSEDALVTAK
Briefly: Final concentrations were 1 uM ATP, 2 mM DTT, 20 mM MgCl2, 2 mM MnCl2, 0.01% BSA, and 6 ug/ml PK7, in a buffer of 20 mM Tris-HCl (pH 7.5). The enzyme itself was the only substrate present (since autophosphorylation occurs); 100 uM 1NA-PP1 was used as a control inhibitor. Incubation time was 3 hours.

Assay [3] deals with T3, Mitogen-activated protein kinase (Plasmodium falciparum, UniProt Q25917).
T3 sequence (Q25917 whole entry): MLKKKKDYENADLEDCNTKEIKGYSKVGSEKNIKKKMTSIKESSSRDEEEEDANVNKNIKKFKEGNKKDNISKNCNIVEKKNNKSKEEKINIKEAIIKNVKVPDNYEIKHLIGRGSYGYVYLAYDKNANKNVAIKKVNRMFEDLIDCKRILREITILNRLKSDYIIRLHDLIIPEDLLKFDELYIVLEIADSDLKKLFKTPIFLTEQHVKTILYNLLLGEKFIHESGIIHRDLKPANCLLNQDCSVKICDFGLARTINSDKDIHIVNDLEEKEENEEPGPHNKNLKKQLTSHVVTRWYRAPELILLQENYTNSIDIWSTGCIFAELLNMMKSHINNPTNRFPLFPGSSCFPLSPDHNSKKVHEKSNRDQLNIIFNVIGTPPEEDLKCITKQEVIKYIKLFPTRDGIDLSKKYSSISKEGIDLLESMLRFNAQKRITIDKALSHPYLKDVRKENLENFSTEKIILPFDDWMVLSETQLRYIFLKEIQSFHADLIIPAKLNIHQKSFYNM
Briefly: Final concentrations were 1 uM ATP, 0.5 mM DTT, 1 mM MgCl2, 0.5 mg/mL BSA, and 10 ug/ml MAP2 in a buffer of 50 mM HEPES (pH 7.0). 0.5 mg/mL histone III-S served as the substrate (13); 100 uM AMP-PNP, an ATP analog, was used as a control inhibitor. Incubation time was 4 hours.

Assay [4] deals with Calcium-dependent protein kinase 1 (Plasmodium falciparum, UniProt P62344). Put plainly: MMV: CDPK1 Protein kinase inhibition assay using recombinant PfCDPK1, syntide 2 peptide substrate, ATP and KinaseGlo to measure % inhibition at 1 uM MMV box compound.
Sequence of Calcium-dependent protein kinase 1 (P62344 whole entry): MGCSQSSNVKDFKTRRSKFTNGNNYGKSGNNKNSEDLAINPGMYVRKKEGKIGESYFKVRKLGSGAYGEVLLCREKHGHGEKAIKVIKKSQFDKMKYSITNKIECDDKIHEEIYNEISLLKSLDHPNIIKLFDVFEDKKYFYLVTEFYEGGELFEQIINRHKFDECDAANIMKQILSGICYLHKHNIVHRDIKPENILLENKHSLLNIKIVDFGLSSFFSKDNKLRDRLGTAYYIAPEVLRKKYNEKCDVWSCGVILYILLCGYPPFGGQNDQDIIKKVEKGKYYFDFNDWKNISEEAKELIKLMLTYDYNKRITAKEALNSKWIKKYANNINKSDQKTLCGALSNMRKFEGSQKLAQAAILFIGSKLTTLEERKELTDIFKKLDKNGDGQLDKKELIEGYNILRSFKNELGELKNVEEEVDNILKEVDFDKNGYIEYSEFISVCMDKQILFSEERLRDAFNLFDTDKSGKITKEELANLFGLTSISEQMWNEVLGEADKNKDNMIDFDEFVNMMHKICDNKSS
Assay [5] addresses T4, Calcium-dependent protein kinase 4 (Plasmodium falciparum (isolate 3D7), UniProt Q8IBS5).
T4 sequence (Q8IBS5 whole entry): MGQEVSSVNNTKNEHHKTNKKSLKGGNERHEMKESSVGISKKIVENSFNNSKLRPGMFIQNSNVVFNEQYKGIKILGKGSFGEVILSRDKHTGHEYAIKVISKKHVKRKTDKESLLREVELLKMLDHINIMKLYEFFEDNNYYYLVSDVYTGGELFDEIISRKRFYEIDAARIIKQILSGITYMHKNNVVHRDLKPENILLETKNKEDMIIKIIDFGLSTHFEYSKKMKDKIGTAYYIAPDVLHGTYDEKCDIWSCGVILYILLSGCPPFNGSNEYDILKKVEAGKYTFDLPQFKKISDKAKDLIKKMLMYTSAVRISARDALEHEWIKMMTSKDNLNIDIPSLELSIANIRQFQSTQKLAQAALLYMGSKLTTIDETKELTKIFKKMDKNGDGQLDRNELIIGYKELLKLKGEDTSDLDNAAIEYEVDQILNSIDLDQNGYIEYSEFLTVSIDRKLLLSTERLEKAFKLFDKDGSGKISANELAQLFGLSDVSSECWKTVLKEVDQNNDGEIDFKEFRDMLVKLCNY
Put plainly: MMV: CDPK4 Protein kinase inhibition assay using recombinant PfCDPK4, syntide2 peptide substrate, ATP and KinaseGlo to measure % inhibition at 1 uM MMV box compound.

Assay [6] deals with T5, Proline--tRNA ligase (Plasmodium falciparum (isolate 3D7), UniProt Q8I5R7).
T5 sequence (Q8I5R7 whole entry): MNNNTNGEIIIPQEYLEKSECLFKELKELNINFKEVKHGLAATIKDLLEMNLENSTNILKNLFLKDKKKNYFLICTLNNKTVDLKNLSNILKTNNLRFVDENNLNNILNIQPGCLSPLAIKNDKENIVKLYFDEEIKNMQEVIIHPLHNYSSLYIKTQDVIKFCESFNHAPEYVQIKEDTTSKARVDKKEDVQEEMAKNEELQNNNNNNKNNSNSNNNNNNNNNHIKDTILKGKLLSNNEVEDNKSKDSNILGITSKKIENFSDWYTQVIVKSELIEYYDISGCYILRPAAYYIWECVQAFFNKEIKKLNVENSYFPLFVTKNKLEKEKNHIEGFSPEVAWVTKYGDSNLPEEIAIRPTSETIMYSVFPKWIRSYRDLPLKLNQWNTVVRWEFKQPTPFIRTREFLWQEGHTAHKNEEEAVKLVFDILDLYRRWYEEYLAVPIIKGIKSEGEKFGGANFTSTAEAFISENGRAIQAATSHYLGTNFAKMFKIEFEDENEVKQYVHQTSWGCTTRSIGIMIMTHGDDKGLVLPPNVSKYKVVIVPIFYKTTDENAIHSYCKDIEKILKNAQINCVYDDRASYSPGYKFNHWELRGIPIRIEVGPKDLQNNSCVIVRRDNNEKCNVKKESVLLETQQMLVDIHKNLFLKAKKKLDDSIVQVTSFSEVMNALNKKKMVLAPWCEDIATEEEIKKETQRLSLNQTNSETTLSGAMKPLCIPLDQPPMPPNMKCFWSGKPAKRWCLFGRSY
Briefly: MMV: ProRS recombinant Plasmodium falciparum Prolyl-tRNA-synthetase, assay with yeast tRNA, ATP, and proline and 3 uM MMV malaria box compound, assay read out with kinase glo as % inhibition.

Assay [7] concerns the target Lysine--tRNA ligase (Plasmodium falciparum (isolate 3D7), UniProt Q8IDJ8). Put plainly: MMV: KRS recombinant Plasmodium falciparum Lysyl-tRNA-synthetase, assay with yeast tRNA, ATP, and lysine and 3 uM MMV malaria box compound, assay read out with kinase glo as % inhibition.

The record followed here is ChEMBL document CHEMBL3301562, “MMV Box screening against Plasmodium falciparum protein kinases and aminoacyl tRNA synthetases”.

Sequence of Lysine--tRNA ligase (Q8IDJ8 whole entry): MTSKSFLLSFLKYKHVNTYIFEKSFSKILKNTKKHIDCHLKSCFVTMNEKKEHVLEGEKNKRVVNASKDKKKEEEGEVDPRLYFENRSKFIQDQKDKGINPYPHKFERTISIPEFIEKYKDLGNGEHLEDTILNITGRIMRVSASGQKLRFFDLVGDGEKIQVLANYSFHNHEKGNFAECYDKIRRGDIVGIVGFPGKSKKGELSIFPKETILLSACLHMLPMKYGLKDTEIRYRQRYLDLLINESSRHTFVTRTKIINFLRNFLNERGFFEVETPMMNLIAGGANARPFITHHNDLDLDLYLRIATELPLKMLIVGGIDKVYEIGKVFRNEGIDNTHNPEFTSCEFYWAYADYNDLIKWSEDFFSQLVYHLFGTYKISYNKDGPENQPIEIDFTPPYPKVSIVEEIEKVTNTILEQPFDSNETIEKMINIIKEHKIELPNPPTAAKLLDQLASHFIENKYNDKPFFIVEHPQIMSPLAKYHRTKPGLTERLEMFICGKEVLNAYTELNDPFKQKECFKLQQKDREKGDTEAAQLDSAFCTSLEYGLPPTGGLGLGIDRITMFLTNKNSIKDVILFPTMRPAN

In the case of `O=c1nc(C=Cc2ccc(Br)cc2)oc2ccccc12`, the IC50 (usually the concentration that inhibits the measured activity by half) in assay [1] is over 1000 nM; in assay [2], over 1000 nM; in assay [3] it was over 1000 nM; in assay [4], over 1000 nM; in assay [5], 700 nM; in assay [6] it was over 2500 nM. For the same compound, the IC50 in assay [7] is over 2500 nM.
With `COc1ccc2nc(N)nc(C)c2c1`, the IC50 in assay [1] is over 1000 nM; in assay [2], over 1000 nM; in assay [3] it was over 1000 nM; in assay [4], over 1000 nM; in assay [5] it was over 1000 nM; in assay [6], over 2500 nM. Further, the half-maximal inhibitory concentration (IC50) in assay [7] is over 2500 nM.
As to `COc1ccc(C(=O)NC(c2ccc(Cl)cc2Cl)c2cc(Cl)c3cccnc3c2O)cc1` (stereo not given), the half-inhibitory concentration (IC50) is over 1000 nM in assay [1]; over 1000 nM in assay [2]; over 1000 nM in assay [3]; over 1000 nM in assay [4]; over 1000 nM in assay [5]; over 2500 nM in assay [6]. Further, in assay [7], the IC50 is over 2500 nM.
`CCOC(=O)c1cnc2ccc(Cl)cc2c1NCCCN(C)C`: the IC50 in assay [1] was over 1000 nM; in assay [2], over 1000 nM; in assay [3], over 1000 nM; in assay [4] it was over 1000 nM; in assay [5] it was over 1000 nM; in assay [6], over 2500 nM. In assay [7], the IC50 is over 2500 nM.
On to `O=C1c2ccccc2C2=Nc3ccccc3SC(c3cccc(F)c3)C12` (stereo not given), for which the half-inhibitory concentration (IC50) in assay [1] is over 1000 nM; in assay [2], over 1000 nM; in assay [3], over 1000 nM; in assay [4], over 1000 nM; in assay [5] it was over 1000 nM; in assay [6], over 2500 nM. Also, in assay [7], the IC50 is over 2500 nM.
In the case of `CC(C)(C)c1ccc(C(=O)Nc2c3c(nn2-c2cccc(Cl)c2)CSC3)cc1`, the IC50 was over 1000 nM in assay [1]; over 1000 nM in assay [2]; over 1000 nM in assay [3]; over 1000 nM in assay [4]; over 1000 nM in assay [5]; over 2500 nM in assay [6]. Moreover, the IC50 in assay [7] was over 2500 nM.
For the compound `CCOc1cc2c(cc1OCC)C(c1cc(Cl)c(O)c(OCC)c1)NCC2` (stereo not given), the IC50 in assay [1] is over 1000 nM; in assay [2], over 1000 nM; in assay [3] it was over 1000 nM; in assay [4] it was over 1000 nM; in assay [5], over 1000 nM; in assay [6] it was over 2500 nM. Besides, in assay [7], the IC50 was over 2500 nM.
Turning to `COc1ccc(N2CCN(C(CNC(=O)CC(C)(C)C)c3ccc4c(c3)OCO4)CC2)cc1` (stereo not given), the IC50 was over 1000 nM in assay [1]; over 1000 nM in assay [2]; over 1000 nM in assay [3]; over 1000 nM in assay [4]; over 1000 nM in assay [5]; over 2500 nM in assay [6]. The IC50 in assay [7] was over 2500 nM.
As for `CCCCCCn1c(=N)n(CC(O)COc2cccc(C)c2)c2ccccc21` (stereo not given), the IC50 in assay [1] is over 1000 nM; in assay [2], over 1000 nM; in assay [3] it was over 1000 nM; in assay [4] it was over 1000 nM; in assay [5], over 1000 nM; in assay [6] it was over 2500 nM. For the same compound, the concentration for half-maximal inhibition (IC50) in assay [7] is over 2500 nM.
Take `Oc1ccc(C(=C(Cl)Cl)c2ccc(O)cc2)cc1`: the IC50 is over 1000 nM in assay [1]; over 1000 nM in assay [2]; over 1000 nM in assay [3]; over 1000 nM in assay [4]; over 1000 nM in assay [5]; over 2500 nM in assay [6]. In assay [7], the IC50 is over 2500 nM.
With `COc1ccc(CN2CCN(Cc3ccccc3)CC2)c(O)c1`, the IC50 in assay [1] is over 1000 nM; in assay [2], over 1000 nM; in assay [3] it was over 1000 nM; in assay [4], over 1000 nM; in assay [5] it was over 1000 nM; in assay [6], over 2500 nM. In addition, the IC50 in assay [7] is over 2500 nM.
`OC(CNCc1ccccc1)Cn1c2ccccc2c2ccccc21` (stereo not given): the IC50 in assay [1] was over 1000 nM; in assay [2], over 1000 nM; in assay [3], over 1000 nM; in assay [4], over 1000 nM; in assay [5], over 1000 nM; in assay [6], over 2500 nM. Also, in assay [7], the IC50 was over 2500 nM.
In the case of `OC1=C2C(=Nc3ccccc3SC2c2ccc(Br)cc2)c2ccccc21` (stereo not given), the IC50 in assay [1] was over 1000 nM; in assay [2] it was over 1000 nM; in assay [3], over 1000 nM; in assay [4], over 1000 nM; in assay [5], over 1000 nM; in assay [6], over 2500 nM. The IC50 in assay [7] is over 2500 nM.
On to `COc1ccc(C(=O)C2CC2c2ccc(Cl)cc2)cc1` (stereo not given), for which the IC50 was over 1000 nM in assay [1]; over 1000 nM in assay [2]; over 1000 nM in assay [3]; over 1000 nM in assay [4]; over 1000 nM in assay [5]; over 2500 nM in assay [6]. Moreover, the IC50 in assay [7] is over 2500 nM.
For `CCN1CCN(c2c(C(=O)c3ccccc3)cnc3cc(OC)c(OC)cc23)CC1`, the IC50 in assay [1] is over 1000 nM; in assay [2] it was over 1000 nM; in assay [3] it was over 1000 nM; in assay [4], over 1000 nM; in assay [5] it was over 1000 nM; in assay [6] it was over 2500 nM. In assay [7], the IC50 was over 2500 nM.
